The source of these data is US11253460B2, “Cosmetic compositions” (Mary Kay Inc., priority 2013, dated 2022).

Holding throughout (format): cell-based
In assay [1] the test system is B16-F1 melanocytes. Briefly: B16 Pigmentation Assay. From the text:
B16 Pigmentation Assay: Melanogenesis is the process by which melanocytes produce melanin, a naturally produced pigment that imparts color to skin, hair, and eyes. Inhibiting melanogenesis is beneficial to prevent skin darkening and lighten dark spots associated with aging. This bioassay utilizes B16-F1 melanocytes (ATCC), an immortalized mouse melanoma cell line, to analyze the effect of compounds on melanogenesis. The endpoint of this assay is a spectrophotometric measurement of melanin production and cellular viability. B16-F1 melanocytes, can be cultivated in standard DMEM growth medium with 10% fetal bovine serum (Mediatech) at 37° C. in 10% CO2 and then treated with any one of the active ingredients, combination of ingredients, or compositions having said combinations disclosed in the specification for 6 days. Following incubation, melanin secretion was measured by absorbance at 405 nm and cellular viability was quantified.

The test system of assay [2] is IL-1α production by Human Epidermal Keratinocytes. Briefly: IL-1α Assay (ELISA, cell culture supernates). As for the experimental part:
IL-1α Assay: A quantitative sandwich enzyme immunoassay technique(ELISA) was used to measure IL-1α in cell culture supernates. A monoclonal antibody that is specific for IL-1α was pre-coated onto a microplate. Standards and treatment samples are then pipetted into the wells and any IL-1α present is bound by the immobilized antibody. After washing away any unbound substances, an enzyme-linked polyclonal antibody specific for IL-1α is added to the wells. Following a wash to remove any unbound antibody-enzyme reagent, a substrate solution is added to the wells and color develops in proportion to the amount of IL-1α bound which was secreted in response to the treatment.

Assay [3] concerns TNF-α production by human epidermal keratinocytes. The experiment in a line: Tumor Necrosis Factor Alpha (TNF-α) Assay (ELISA). The source says:
Tumor Necrosis Factor Alpha (TNF-α) Assay: The prototype ligand of the TNF superfamily, TNF-α, is a pleiotropic cytokine that plays a central role in inflammation. Increase in its expression is associated with an up regulation in pro-inflammatory activity. This bioassay can be used to analyze the effect of any one of the active ingredients, combination of ingredients, or compositions having said combinations disclosed in the specification on the production of TNF-α by human epidermal keratinocytes. The endpoint of this assay can be a spectrophotometric measurement that reflects the presence of TNF-α and cellular viability. The assay employs the quantitative sandwich enzyme immunoassay technique whereby a monoclonal antibody specific for TNF-α has been pre-coated onto a microplate. […] Following a wash to remove any unbound antibody-enzyme reagent, a substrate solution can be added to the wells and color develops in proportion to the amount of TNF-α bound in the initial step using a microplate reader for detection at 450 nm. The color development can be stopped and the intensity of the color can be measured. […] Following incubation, cell culture medium can be collected and the amount of TNF-α secretion quantified using a sandwich enzyme linked immuno-sorbant assay (ELISA) from R&D Systems (#DTA00C).
(In general: In an ELISA, binding on a coated surface is turned into a signal by an enzyme label.)

On to `NC(=O)c1cccnc1` [Niacinamide], for which the “Inhibits Melanogenesis with Mouse Melanocytes (B16-F1 Assay)” value in assay [1] was “(−28%)”.

With Acetyl dipeptide-1 Cetyl Ester, the Inhibit IL-1α Production by Human Epidermal Keratinocytes (% inhibition) in assay [2] was determined as 97%. Also, in assay [3], the Inhibit TNF-α Production by Human Epidermal Keratinocytes came to 88%.
